Data as given in BindingDB's records for doi:10.1016/s0960-894x(00)00610-7 (Institute of Molecular and Cell Biology, 2001).

Target: T1, Chymotrypsin-C (Homo sapiens, UniProt Q99895)
T1 sequence (Q99895 whole entry): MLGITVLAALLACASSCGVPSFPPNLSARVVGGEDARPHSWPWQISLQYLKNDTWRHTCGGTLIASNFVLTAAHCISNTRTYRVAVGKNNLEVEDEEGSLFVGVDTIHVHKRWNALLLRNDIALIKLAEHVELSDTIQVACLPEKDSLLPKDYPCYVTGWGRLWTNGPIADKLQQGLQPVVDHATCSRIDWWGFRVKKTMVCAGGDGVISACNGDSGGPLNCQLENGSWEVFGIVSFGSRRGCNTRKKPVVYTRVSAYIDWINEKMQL
Assay: ChEBML_197813
Excerpt: Inhibitory activity against Serine protease chymotrypsin

Compound: C=C(c1cccc(OC(=O)N[C@@H](CC(C)C)C(=O)N(CCN(Cc2ccc(C(=O)OC)cc2)Cc2ccc(C(=O)OC)cc2)Cc2ccc(Cl)cc2)c1)c1sc(=S)n(CC(=O)OCC)c1O [4-{[(2-{(4-Chloro-benzyl)-[2-(3-{1-[3-ethoxycarbonylmethyl-4-oxo-2-thioxo-thiazolidin-(5Z)-ylidene]-ethyl}-phenoxycarbonylamino)-4-methyl-pentanoyl]-amino}-ethyl)-amino-methyl]di-benzoic acid methyl ester]
- IC50: 210 µM
